Assays:
[1] = test system: NCTC 2544 human keratinocytes; experiment: MTT assay, cell viability; format: cell-based; settings: for tolerability by NCTC2544 human keratinocytes: 2.5-5 and 10 μM
Method: The data represent mean values ±standard deviation. Each treatment was carried out in duplicate.
The data are expressed as mean values ±standard deviation. Each treatment was carried out in duplicate.
The MTT test is useful to assess in vitro cell viability following the treatment with diluted compounds. The MTT method has been used as an indirect measure of cell viability.
The effects on NCTC 2544 cell proliferation from compounds 18-β and POLY-GLY-S at different concentrations have been examined.
The cells have been plated at low densities and treated with different concentrations of active compounds and negative control, in culture medium EMEM, without phenol red supplemented at 10% with FCS, 2 mM L-glutamine, 1% NEAA solution and 1% antibiotic mixture for 24, 48 and 72 hours and cell viability has been assessed by the MTT assay. The cell viability percentage compared to control (FIGS. 1-2) has been calculated after 24, 48 and 72 hours of incubation. […] The same results have been obtained after a prolonged cells exposure (48-72 hours) to tested compounds for all the considered concentrations.

[2] = test system: expression of the TNF-α gene in NCTC 2544 human keratinocytes; experiment: Inflammation assessment assay: expression of the TNF-α gene by RT-PCR in LPS-treated cells; format: cell-based; settings: for inhibition of the expression of the TNF-α gene / anti-inflammatory effect (inhibiting the expression of the TNF-α gene): LPS 5 μg/ml; for inhibition of the expression of the TNF-α gene: 48 hrs of treatment, compared to cells treated only with LPS; for anti-inflammatory effect (inhibiting the expression of the TNF-α gene): 2.5-5-10 μM, after 48 hrs of treatment
Method: The NCTC 2544 cells were treated at 37° C. for 48 hours, at 5% CO2, with: basal culture medium, containing 2.5% fetal bovine serum (negative control), with: basal culture medium, containing 2.5% fetal bovine serum supplemented with LPS (5 μg/ml) (positive control), with: basal culture medium, containing 2.5% fetal bovine serum supplemented with LPS (5 μg/ml) and 18-β-glycyrrhetinic acid (18-β) at a concentration of 2.5-5-10 μM, with: basal culture medium, containing 2.5% fetal bovine serum supplemented with LPS (5 μg/ml), and POLY-GLY-S at a concentration of 2.5-5-10 μM. The results are expressed as a percentage of inflammation as compared to cells treated with LPS. The values represent the mean values of 2 experiments in duplicate.
The anti-inflammatory effects of ester having formula (Ia) of Example 1 (referred to as ‘POLY-GLY-S’ for shortness of description) have been investigated in an in vitro inflammation model, on NCTC2544 human keratinocytes and using lipopolysaccharide (LPS) from E. coli as mediator of inflammatory state. The effect of derivative in the models used has been compared to that of 18-β-glycyrrhetic acid (referred to as ‘18-β’ for shortness of description).
Furthermore, the in vitro inflammatory potential of POLY-GLY-S towards a positive control (cells treated with 5 μg/ml lipopolysaccharide) was determined. The data obtained have been compared to those obtained, in the same experimental model, using 18-β.
Inflammation Assessment Assay
The expression of the TNF-α gene on NCTC 2544 cells was assessed by RT-PCR.
The gene expression analysis implies four steps: • 1. Cell treatment with active compounds for 48 hrs; • 2. RNA extraction; • 3. cDNA reverse transcription; • 4. quantitative […].
In experimental conditions, in connection with the results obtained in the previous MIT assay, POLY-GLY-S and 18-β have been tested at a concentration of 20 μM (final concentration in the culture medium). Both positive control and negative control have been tested.
When the cells (NCTC 2544 human keratinocytes) had reached about 80% confluence, they were removed with trypsin/EDTA and seeded at a density of 1×10^6 cells/ml in 12-well plates and then incubated at 37° C., 5% CO2 (24 h).
When the cells had reached about 80% confluence, the complete medium was removed; cells were washed with PBS 1× and incubated in EMEN (EBSS) with 2.5% FBS, supplemented with 2 mM L-glutamine, 1% NEAA solution and 1% antibiotic mixture at 37° C., 5% CO2 for at least 4 hrs.
POLY-GLY-S and 18-β were dissolved in EMEN supplemented with 2.5% FBS, 2 mM L-glutamine, 1% NEAA solution and 1% penicillin (10,000 U/ml)/streptomycin (10,000 μg/ml) mixture.
Controls only containing culture medium (negative control) and culture medium plus LPS (5 μg/ml) (positive control) have been included in each plate.
Cells were exposed to increasing concentrations of compounds to be tested, i.e. 2.5-5-10 μM.
To each well LPS at a concentration of 5 μg/ml was added. Each sample was tested in duplicate.
Then cells were incubated at 37° C., 5% CO2 for 24 hrs.
Total RNA was extracted from cells using a single homogeneous solution Tri-reagent (Sigma Aldrich) to isolate RNA following manufacturer's instructions.
The extracted and quantified total RNA was amplified using the “High-Capacity cDNA Reverse transcription Kit” (Applied Biosystems).
RT-PCR was carried out using TaqMan linear probes (Applied Biosystems). These probes are the most used and published detection system for qPCR applications. In stock probes and primer were selected based on previous specific bibliographic studies.
The relative quantification method was used where the gene relative concentration of interest (target) is compared with unknown samples to a calibrator or control sample (untreated cells).
10 μl TaqMan 2× Gene Expression master Mix and 1 μl 20× TaqMan Gene Expression were added to cDNA. […]

[3] = cited from earlier work
[4] = 24 hours of incubation, all tested concentrations (18-β 2.5-80 μM, ester (Ia) 0.625-80 μM)
[5] = prolonged exposure 48-72 hours, all considered concentrations

Compound | tolerability by NCTC2544 human keratinocytes [1] | cytotoxic effect on NCTC2544 compared to control (MTT, % viability) [1, 4] | cytotoxic effect on NCTC2544 compared to control (MTT, % viability) [1, 5] | inhibition of the expression of the TNF-α gene ([2]; 2.5 μM) [%] | inhibition of the expression of the TNF-α gene ([2]; 5 μM) [%] | inhibition of the expression of the TNF-α gene ([2]; 10 μM) [%] | anti-inflammatory effect (inhibiting the expression of the TNF-α gene) [2] | reduction of the expression of the TNF-α gene ([2]; all the concentrations assayed, 48 hours of incubation (conclusions)) | solubility in ethanol ([3]; ethanol) | solubility in oils ([3]; oils) | solubility in water ([3]; water)
CC1(C)[C@@H](O)CC[C@]2(C)[C@H]3C(=O)C=C4[C@@H]5C[C@@](C)(C(=O)OCC(O)C(O)C(O)C(O)COCC(O)COCC(O)COCC(O)CO)CC[C@]5(C)CC[C@@]4(C)[C@]3(C)CC[C@@H]12 (stereo partly drawn) [POLY-GLY-S, glycyrrhetinic ester of polyglycerol-3-sorbitol] | well tolerated | none | same results | 43.99 | 40.71 | 54.36 | significantly effective | at least 50% |  |  | 
CC1(C)[C@@H](O)CC[C@]2(C)[C@H]3C(=O)C=C4[C@@H]5C[C@@](C)(C(=O)O)CC[C@]5(C)CC[C@@]4(C)[C@]3(C)CC[C@@H]12 [18-β, 18-Beta glycyrrhetinic acid, reference compound] | well tolerated | none | same results |  |  |  | no longer had anti-inflammatory effect |  | soluble | insoluble | insoluble

From patent publication US9394335B2, “Esters of glycyrrhetinic acid, preparation and cosmetic applications thereof” (GIULIANI S.P.A., priority 2012, dated 2016)
